Experimental data as given in PMC5216056 (Nature Communications, 2017).
Several values for one entry are separate records, joined by “and”; a condition that tells them apart may be missing. Identical values can stand only once. Like-named read-outs stand apart in the source and are kept apart here.

Columns and labels:
[1] = system: Ca2+ channel (L, diltiazem site); test: CEREP panel; assay type: binding; settings: 10 µM
beta 1 (h) = target: T1, beta 1 (h) (Homo sapiens, UniProt P08588); test: biochemical; assay type: binding; settings: 10 µM
T1 construct: CEREP

Rat recombinant TRPV3 = target: T2, Rat recombinant TRPV3 (Rattus norvegicus, UniProt Q4QYD9); test: cell-based; assay type: cell-based; settings: for IC50: vs thymol 100μM, read-out: TRPV3 IC50 for antagonism or desensitization; for EC50: read-out: TRPV3 Potency EC50
T2 construct: expressed in transfected cells; host or cells: HEK293 (TRPV3-HEK-293, gift from HB Bradshaw, Indiana University)
T2 sequence (Q4QYD9 1-791): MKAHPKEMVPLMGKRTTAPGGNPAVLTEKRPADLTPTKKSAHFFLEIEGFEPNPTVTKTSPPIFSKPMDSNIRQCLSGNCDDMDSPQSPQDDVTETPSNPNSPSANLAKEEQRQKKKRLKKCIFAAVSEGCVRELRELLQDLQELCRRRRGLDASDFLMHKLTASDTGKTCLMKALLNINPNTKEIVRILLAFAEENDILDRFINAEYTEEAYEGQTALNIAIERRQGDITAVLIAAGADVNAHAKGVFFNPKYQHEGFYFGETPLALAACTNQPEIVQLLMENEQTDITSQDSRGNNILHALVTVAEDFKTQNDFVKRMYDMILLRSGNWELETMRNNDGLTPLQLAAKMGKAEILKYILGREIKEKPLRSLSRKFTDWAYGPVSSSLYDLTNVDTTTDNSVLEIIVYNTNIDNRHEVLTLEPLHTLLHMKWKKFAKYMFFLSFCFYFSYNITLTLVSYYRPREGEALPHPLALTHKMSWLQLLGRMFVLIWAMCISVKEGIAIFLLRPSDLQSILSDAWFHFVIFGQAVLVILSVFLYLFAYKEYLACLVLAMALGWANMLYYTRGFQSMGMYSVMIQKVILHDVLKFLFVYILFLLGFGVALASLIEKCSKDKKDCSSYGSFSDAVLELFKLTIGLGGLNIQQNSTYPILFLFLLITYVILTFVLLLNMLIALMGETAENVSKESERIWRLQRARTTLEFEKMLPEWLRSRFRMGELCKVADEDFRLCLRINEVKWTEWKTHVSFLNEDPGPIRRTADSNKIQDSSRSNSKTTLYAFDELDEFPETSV

[2] = system: AEA cellular uptake in U937 cells; test: cells; assay type: cell-based, human; settings: for AEA reuptake % inhibition, effect at 10 µM, U937 cells: 10 µM (values marked *); for IC50: read-out: AEA reuptake IC50 (95% CI) U937 cells; for AEA reuptake Efficacy (% inhibition) U937 cells: from dose-response
BZD (central) = assay type: binding; settings: 10 µM
Na+ channel (site 2) = assay type: binding; settings: 10 µM
hCB1R [3] = target: T3, hCB1R (Homo sapiens, UniProt P21554); test: cell-based; assay type: cell-based
T3 construct: host or cells: CHO

MT3 (ML2) = target: T4, MT3 (ML2) (Mesocricetus auratus, UniProt A0ABM2YAB8); test: CEREP panel; assay type: binding; settings: for % inhibition MT3 (ML2): 10 µM
T4 construct: CEREP (contract assay)
T4 sequence (A0ABM2YAB8 1-231): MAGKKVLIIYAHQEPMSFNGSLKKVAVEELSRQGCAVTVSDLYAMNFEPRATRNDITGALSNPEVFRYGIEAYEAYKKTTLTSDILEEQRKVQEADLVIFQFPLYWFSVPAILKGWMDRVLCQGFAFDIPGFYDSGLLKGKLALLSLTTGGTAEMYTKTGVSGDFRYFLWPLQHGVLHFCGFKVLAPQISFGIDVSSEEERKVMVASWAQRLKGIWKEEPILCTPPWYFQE

[4] = system: AEA cellular uptake in HMC-1 cells; test: cells; assay type: cell-based, human; settings: read-out: AEA reuptake IC50 (95% CI) HMC-1 cells; FAAH-deficient cells
A1 (h) = target: T5, A1 (h) (Homo sapiens, UniProt P30542); test: CEREP panel; assay type: binding; settings: 10 µM
T5 construct: CEREP
T5 sequence (P30542 1-326): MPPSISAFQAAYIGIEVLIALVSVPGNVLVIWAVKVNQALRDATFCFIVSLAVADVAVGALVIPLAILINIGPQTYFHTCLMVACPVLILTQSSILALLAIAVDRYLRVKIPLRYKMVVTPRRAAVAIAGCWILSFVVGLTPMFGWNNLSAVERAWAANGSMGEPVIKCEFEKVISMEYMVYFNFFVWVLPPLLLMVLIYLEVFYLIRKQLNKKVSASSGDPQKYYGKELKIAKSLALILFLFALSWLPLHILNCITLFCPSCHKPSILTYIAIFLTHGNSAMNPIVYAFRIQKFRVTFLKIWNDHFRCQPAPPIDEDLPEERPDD

alpha 2A (h) = target: T6, alpha 2A (h) (Homo sapiens, UniProt P08913); test: CEREP panel; assay type: binding; settings: 10 µM
T6 construct: CEREP
T6 sequence (P08913 1-465): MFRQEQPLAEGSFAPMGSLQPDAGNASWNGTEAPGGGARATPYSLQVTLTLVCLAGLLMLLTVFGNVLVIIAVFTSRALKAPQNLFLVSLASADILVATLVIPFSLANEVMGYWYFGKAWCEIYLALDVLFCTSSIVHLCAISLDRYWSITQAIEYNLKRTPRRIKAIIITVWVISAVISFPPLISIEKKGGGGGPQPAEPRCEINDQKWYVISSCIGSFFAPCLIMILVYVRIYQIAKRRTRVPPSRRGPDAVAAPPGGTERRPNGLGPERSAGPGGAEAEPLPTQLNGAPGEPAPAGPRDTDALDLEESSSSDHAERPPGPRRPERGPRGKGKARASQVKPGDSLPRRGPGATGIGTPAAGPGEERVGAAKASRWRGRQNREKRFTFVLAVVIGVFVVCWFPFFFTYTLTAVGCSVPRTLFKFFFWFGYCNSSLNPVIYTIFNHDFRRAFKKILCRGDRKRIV

kappa (KOP) = target: T7, kappa (KOP) (Rattus norvegicus, UniProt P34975); test: CEREP panel; assay type: binding; settings: for % inhibition kappa (KOP): 10 µM
T7 construct: CEREP (contract assay)

hCB1R [5] = target: T3, hCB1R; test: biochemical; assay type: biochemical; settings: for Emax: read-out: Emax ± SEM GTPγS hCB1R
hCB2R [6] = target: T8, hCB2R (Homo sapiens, UniProt P34972); test: biochemical; assay type: binding
hCB2R [7] = target: T8, hCB2R; test: cell-based; assay type: cell-based; parameters: expressed in transfected cells; host or cells: Flp-In-293 (Invitrogen #R750-07), pcDNA5/FRT; settings: for Emax ± SEM GIRK hCB2R: normalized to CP55940; for Emax: AtT20, read-out: Emax ± SEM GIRK hCB2R
[8] = CHO membranes, Leiden, HU210 and SR144528 from Roche

T7 sequence (P34975 whole entry): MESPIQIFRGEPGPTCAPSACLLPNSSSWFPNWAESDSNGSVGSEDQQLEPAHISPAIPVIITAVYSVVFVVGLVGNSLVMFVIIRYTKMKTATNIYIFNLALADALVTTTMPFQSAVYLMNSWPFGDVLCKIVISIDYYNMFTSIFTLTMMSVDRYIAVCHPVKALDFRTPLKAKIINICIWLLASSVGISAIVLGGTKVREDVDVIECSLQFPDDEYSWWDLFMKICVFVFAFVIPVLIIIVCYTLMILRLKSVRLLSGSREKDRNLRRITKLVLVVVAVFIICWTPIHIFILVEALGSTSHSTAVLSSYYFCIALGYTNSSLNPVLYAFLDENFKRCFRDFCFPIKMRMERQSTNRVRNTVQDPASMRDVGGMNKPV
T3 sequence (P21554 whole entry): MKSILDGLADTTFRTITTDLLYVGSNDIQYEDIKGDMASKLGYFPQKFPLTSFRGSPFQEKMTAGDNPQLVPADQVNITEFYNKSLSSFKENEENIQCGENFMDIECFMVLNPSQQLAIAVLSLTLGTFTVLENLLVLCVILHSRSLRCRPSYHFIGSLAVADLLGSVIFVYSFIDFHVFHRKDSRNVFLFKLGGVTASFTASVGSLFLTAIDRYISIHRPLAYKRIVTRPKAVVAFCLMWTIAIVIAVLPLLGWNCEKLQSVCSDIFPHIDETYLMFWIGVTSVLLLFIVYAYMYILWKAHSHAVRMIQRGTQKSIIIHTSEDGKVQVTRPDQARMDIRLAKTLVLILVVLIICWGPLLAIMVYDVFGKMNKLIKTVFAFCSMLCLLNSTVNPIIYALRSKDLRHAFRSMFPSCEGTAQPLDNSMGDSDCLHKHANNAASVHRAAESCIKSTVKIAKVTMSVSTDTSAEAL
T8 sequence (P34972 whole entry): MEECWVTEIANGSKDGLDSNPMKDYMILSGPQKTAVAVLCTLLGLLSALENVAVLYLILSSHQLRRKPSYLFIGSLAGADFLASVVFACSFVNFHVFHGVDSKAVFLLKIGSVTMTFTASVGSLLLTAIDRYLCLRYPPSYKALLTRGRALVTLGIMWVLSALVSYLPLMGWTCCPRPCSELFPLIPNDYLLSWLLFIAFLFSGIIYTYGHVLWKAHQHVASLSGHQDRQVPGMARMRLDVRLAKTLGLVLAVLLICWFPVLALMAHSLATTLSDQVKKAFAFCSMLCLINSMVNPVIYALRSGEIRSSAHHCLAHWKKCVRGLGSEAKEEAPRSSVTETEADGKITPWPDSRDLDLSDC
T1 sequence (P08588 whole entry): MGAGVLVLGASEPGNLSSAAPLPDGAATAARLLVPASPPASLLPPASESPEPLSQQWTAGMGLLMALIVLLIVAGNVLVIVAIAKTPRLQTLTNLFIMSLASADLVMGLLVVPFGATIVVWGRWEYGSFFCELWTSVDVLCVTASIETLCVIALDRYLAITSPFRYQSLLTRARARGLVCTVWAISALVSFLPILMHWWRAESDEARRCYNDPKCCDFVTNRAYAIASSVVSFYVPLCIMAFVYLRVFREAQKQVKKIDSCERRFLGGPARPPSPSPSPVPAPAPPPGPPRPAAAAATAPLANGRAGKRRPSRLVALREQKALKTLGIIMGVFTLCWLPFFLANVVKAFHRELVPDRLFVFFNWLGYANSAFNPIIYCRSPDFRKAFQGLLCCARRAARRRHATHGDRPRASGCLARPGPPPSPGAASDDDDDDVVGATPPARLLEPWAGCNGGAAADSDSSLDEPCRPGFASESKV

Row | Molecule | % inhibition Ca2+ channel (L, diltiazem site) [1] | % inhibition beta 1 (h) (beta 1 (h)) | TRPV3 Efficacy (% ionomycin 4μM) (Rat recombinant TRPV3) | IC50 [2] | % inhibition BZD (central) (BZD (central)) | % inhibition Na+ channel (site 2) (Na+ channel (site 2)) | % inhibition MT3 (ML2) (MT3 (ML2)) | IC50 [4] | % inhibition A1 (h) (A1 (h)) | % inhibition alpha 2A (h) (alpha 2A (h)) | % inhibition kappa (KOP) (kappa (KOP)) | IC50 (Rat recombinant TRPV3) | pEC50 ± SEM GIRK hCB2R (hCB2R [7]) | also measured
1 | SR144528 | 10% | 41% | < 10% | > 10 µM | -3% | 34% | -21% | > 10 µM | 4% | -5% | – | – | – | AEA reuptake % inhibition, effect at 10 µM, U937 cells [2]: 30%; Emax ± SEM GIRK hCB1R (hCB1R [3]): 9 ± 4
2 | CCCn1c(C)c(C(=O)c2cccc3ccccc23)c2ccccc21 [JWH015] | 33% | 7% | – | – | -57% | 50% | 49% | – | 10% | 1% | 53% | – | – | –
3 | CCCCCCC(C)(C)c1ccc([C@@H]2C[C@H](O)CC[C@H]2CCCO)c(O)c1 [CP55940] | -7% | – | – | – | -9% | 71% | – | – | – | – | – | – | – | inhibition at 10 µM (beta 1 (h); read-out: % inhibition beta 1 (h)): 14%; inhibition at 10 µM (kappa (KOP)): 74%; inhibition at 10 µM (MT3 (ML2); read-out: % inhibition MT3 (ML2)): 22%; inhibition at 10 µM (A1 (h); read-out: % inhibition A1 (h)): 21%; Emax (hCB1R [5]): 92 ± 5%; inhibition at 10 µM (alpha 2A (h); read-out: % inhibition alpha 2A (h)): 23%
4 | COc1ccc(C(=O)c2c(C)n(CCN3CCOCC3)c3cc(I)ccc23)cc1 [AM630] | -11% | 9% | < 10% | > 10 µM | -12% | – | – | > 10 µM | 28% | -5% | 57% | > 100 µM | 5.82 ± 0.08 | pKi ± SEM hCB2R (hCB2R [6]): 7.39 ± 0.02; AEA reuptake % inhibition, effect at 10 µM, U937 cells [2]: 23%
5 | CN1CCCCC1Cn1cc(C(=O)c2cc([N+](=O)[O-])ccc2I)c2ccccc21 (racemic) [(rac)-AM1241] | – | – | – | – | – | – | – | – | – | – | – | – | 5.23 ± 0.21 | CB2R Selectivity (binding, human) (hCB2R [6]): 32; pKi ± SEM hCB2R (hCB2R [6]; [8]): 8.39 ± 0.10; Emax ± SEM GIRK hCB1R (hCB1R [3]): 36 ± 4; pEC50 ± SEM GIRK hCB1R (hCB1R [3]): < 5; Emax ± SEM GIRK hCB2R (hCB2R [7]): 59 ± 14%; Emax ± SEM GTPγS hCB1R (hCB1R [5]): 42 ± 6
6 | Cc1c(C(=O)c2cccc3ccccc23)c2cccc3c2n1[C@H](CN1CCOCC1)CO3 [WIN55212-2] | 55% | 6% | 22.9% | 4.65 µM | 4% | 68% | 69% | > 5 µM | 10% | 0% | 79% | > 100 µM | – | EC50 (Rat recombinant TRPV3): 6.5 µM; AEA reuptake Efficacy (% inhibition) U937 cells [2]: 52%
7 | CCCCC/C=C\C/C=C\C/C=C\C/C=C\CCCC(=O)OC(CO)CO [2-AG, 2-arachidonoyl glycerol] | – | – | – | – | – | – | – | – | – | – | – | – | – | Ki (hCB2R [6]; CHO membranes, Leiden, HU210 and SR144528 from Roche, read-out: pKi ± SEM hCB2R (converted)): ~0.1 µM and 0.115 µM; Emax (hCB1R [3]; AtT20, read-out: Emax ± SEM GIRK hCB1R): 100 ± 11%; Emax (hCB2R [7]): 100 ± 2%; Emax (hCB1R [5]): 71 ± 20%
8 | Cc1c(C(=O)NN2CCCCC2)nn(-c2ccc(Cl)cc2Cl)c1-c1ccc(I)cc1 [AM251] | – | 25% | 25.9% | – | – | – | – | – | 27% | 30% | 94% | – | – | –
9 | CCCCC/C=C\C/C=C\C/C=C\C/C=C\CCCC(=O)NCCO [Anandamide, N-arachidonoylethanolamine] | – | – | – | – | – | – | – | – | – | – | – | – | – | Emax (hCB2R [7]): 51 ± 5%
10 | CN1CCCC[C@@H]1Cn1cc(C(=O)c2cc([N+](=O)[O-])ccc2I)c2ccccc21 [(R)-AM1241] | – | – | 12.9% | 4.81 µM | – | – | – | > 5 µM | – | – | – | > 50 µM | < 5 | EC50 (Rat recombinant TRPV3): 10 µM; CB2R Selectivity (binding, human) (hCB2R [6]; 10^(pKi CB2R-pKi CB1R)): 38 fold; pKi ± SEM hCB2R (hCB2R [6]; [8]): 8.44 ± 0.25; AEA reuptake Efficacy (% inhibition) U937 cells [2]: 77%; pEC50 ± SEM GIRK hCB1R (hCB1R [3]): 5.00 ± 0.1; Emax ± SEM GIRK hCB1R (hCB1R [3]; normalized to CP55940): 51 ± 3%; Emax ± SEM GIRK hCB2R (hCB2R [7]): 47 ± 13%; Emax ± SEM GTPγS hCB1R (hCB1R [5]): 47 ± 8; pEC50 ± SEM GTPγS hCB1R (hCB1R [5]): 6.78 ± 0.40
